Reference: US20060281763A1, “Carboxamide inhibitors of TGFbeta” (priority 2005, published 2006)
Read-outs that look alike come from different tables or passages of the source.

Target: T1, TGFβ R1 (Homo sapiens, UniProt P36897)
T1 sequence (P36897 34-503): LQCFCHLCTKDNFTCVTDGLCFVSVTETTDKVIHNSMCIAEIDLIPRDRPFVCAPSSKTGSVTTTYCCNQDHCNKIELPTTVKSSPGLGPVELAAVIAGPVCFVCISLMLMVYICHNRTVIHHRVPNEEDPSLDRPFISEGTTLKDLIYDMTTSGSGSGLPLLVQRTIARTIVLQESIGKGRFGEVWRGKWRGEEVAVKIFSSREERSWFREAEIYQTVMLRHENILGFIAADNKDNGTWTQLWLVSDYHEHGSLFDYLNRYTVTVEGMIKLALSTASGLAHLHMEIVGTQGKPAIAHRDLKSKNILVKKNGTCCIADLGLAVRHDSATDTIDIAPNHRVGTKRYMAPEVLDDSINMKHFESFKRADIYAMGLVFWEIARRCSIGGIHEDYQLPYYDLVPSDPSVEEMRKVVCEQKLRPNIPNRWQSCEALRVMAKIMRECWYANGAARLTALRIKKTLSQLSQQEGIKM
Test: TGFβ R1 autophosphorylation protocol (33P-ATP, phosphocellulose filter plate)
Assay type: biochemical
Settings: 10 uM ATP, read-out: IC50 for Kinase Inhibition
In short: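 Radiometric autophosphorylation: 170 nM enzyme with compound (≤1% DMSO), 10 uM ATP plus γ-33P-ATP, […] in 20 mM MOPS pH 7, 20 min at room temperature. Reaction stopped on phosphocellulose filter, washed with H3PO4 and ethanol, counted by scintillation.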

[1] = 170 nM TGFβ R1, 20 minutes at room temperature
[2] = 170 nM TGFβ R1, room temperature 20 minutes

Structure (SMILES)	IC50 [1]	IC50 [2]
COc1cnc(-c2cc(Cl)ccc2F)nc1Nc1ccncc1C(=O)NC1CCN(C(=O)OC(C)(C)C)C1 (stereo not drawn) [Compound 82, 3-((4-[2-(5-Chloro-2-fluoro-phenyl)-5-methoxy-pyrimidin-4-ylamino]-pyridine-3-carbonyl)-amino)-pyrrolidine-1-carboxylic acid tert-butyl ester]	310 nM	–
O=C(NC1CC1)c1cnccc1Nc1nc(-c2cc(Cl)ccc2F)ncc1Br [Compound 108, 4-[5-Bromo-2-(5-chloro-2-fluoro-phenyl)-pyrimidin-4-ylamino]-N-cyclopropyl-nicotinamide]	2500 nM	–
CC(C)c1cnc(-c2cc(Cl)ccc2F)nc1Nc1ccncc1C(=O)NCCC(=O)N1CCC[C@H]1C(=O)N(C)C [Compound 194, 4-[2-(5-Chloro-2-fluoro-phenyl)-5-isopropyl-pyrimidin-4-ylamino]-N-[3-(2-dimethyl-carbamoyl-pyrrolidin-1-yl)-3-oxo-propyl]-nicotinamide]	–	41 nM
CC(C)(O)CNC(=O)c1cnccc1Nc1nc(-c2cc(Cl)ccc2F)ncc1C1CC1 [Compound 165]	–	27 nM
CC(C)c1cnc(-c2cc(Cl)ccc2F)nc1Nc1ccncc1C(=O)NC[C@H](C)OC(=O)[C@@H](C)N [Compound 205, 2-Amino-propionic acid 2-({4-[2-(5-chloro-2-fluoro-phenyl)-5-isopropyl-pyrimidin-4-ylamino]-pyridine-3-carbonyl}-amino)-1-methyl-ethyl ester]	–	10 nM
COC[C@H]1OC(CCNCCCNC(=O)c2cnccc2Nc2nc(-c3cc(Cl)ccc3F)ncc2OC)[C@H](OC)[C@@H](OC)[C@@H]1OC (stereo partly drawn) [Compound 124, 4-[2-(5-Chloro-2-fluoro-phenyl)-5-methoxy-pyrimidin-4-ylamino]-N-{3-[2-(3,4,5-trimethoxy-6-methoxymethyl-tetrahydro-pyran-2-yl)-ethylamino]-propyl}-nicotinamide]	42 nM	–
CCOP(=O)(OCC)OC(C)(C)CNC(=O)c1cnccc1Nc1nc(-c2cc(Cl)ccc2F)ncc1C(C)C [Compound 192]	–	122 nM
COc1cnc(-c2cc(Cl)ccc2F)nc1Nc1ccncc1C(=O)NCC1CN(Cc2ccccc2)CCO1 (stereo not drawn) [Compound 30, N-(4-Benzyl-morpholin-2-ylmethyl)-4-[2-(5-chloro-2-fluoro-phenyl)-5-methoxy-pyrimidin-4-ylamino)-nicotinamide]	2370 nM	–
COc1cnc(-c2cc(Cl)ccc2F)nc1Nc1ccncc1C(=O)NCCNCCC1O[C@H](CO)[C@@H](O)[C@H](O)[C@@H]1O (stereo partly drawn) [Compound 151]	4 nM	–
COc1cnc(-c2cc(Cl)ccc2F)nc1Nc1ccncc1C(=O)NC1CCN(CCC2O[C@H](CO)[C@@H](O)[C@H](O)[C@@H]2O)CC1 (stereo partly drawn) [Compound 152, 4-[2-(5-Chloro-2-fluoro-phenyl)-5-methoxy-pyrimidin-4-ylamino]-N-{1-[2-(3,4,5-trihydroxy-6-hydroxymethyl-tetrahydro-pyran-2-yl)-ethyl]-piperidin-4-yl}-nicotinamide]	28 nM	–
COc1cnc(-c2cc(Cl)ccc2F)nc1Nc1ccncc1C(=O)NCC(C)(C)O [Compound 58, 4-[2-(5-Chloro-2-fluoro-phenyl)-5-methoxy-pyrimidin-4-ylamino]-N-(2-hydroxy-2-methyl-propyl)-nicotinamide]	470 nM	–
COc1cnc(-c2cc(Cl)ccc2F)nc1Nc1ccncc1C(=O)NCCCN1CC[C@@H](F)C1 [Compound 155, 4-[2-(5-Chloro-2-fluoro-phenyl)-5-methoxy-pyrimidin-4-ylamino]-N-[3-(3-fluoro-pyrrolidin-1-yl)-propyl]-nicotinamide]	8 nM	–
COc1cnc(-c2cc(Cl)ccc2F)nc1Nc1ccncc1C(=O)NCCCN/C(=N/C#N)N1CCC1 [Compound 44]	130 nM	–
COCCCNC(=O)c1cnccc1Nc1nc(-c2cc(Cl)ccc2F)ncc1C(C)C [Compound 186, 4-[2-(5-Chloro-2-fluoro-phenyl)-5-isopropyl-pyrimidin-4-ylamino]-N-(3-methoxy-propyl)-nicotinamide]	–	11 nM
CC(C)c1cnc(-c2cc(Cl)ccc2F)nc1Nc1cc[n+]([O-])cc1C(=O)NCC(C)(C)O [Compound 196, 4-[2-(5-Chloro-2-fluoro-phenyl)-5-isopropyl-pyrimidin-4-ylamino]-N-(2-hydroxy-2-methyl-propyl)-1-oxy-nicotinamide]	–	245 nM
COc1cnc(-c2cc(Cl)ccc2F)nc1Nc1ccncc1C(=O)NCCCNC(=O)NC(C)C [Compound 66, 4-[2-(5-Chloro-2-fluoro-phenyl)-5-methoxy-pyrimidin-4-ylamino]-N-[3-(3-isopropyl-ureido)-propyl]-nicotinamide]	270 nM	–
COc1cnc(-c2cc(Cl)ccc2F)nc1Nc1ccncc1C(=O)N[C@@H]1CCNC1 [Compound 138, 4-[2-(5-Chloro-2-fluoro-phenyl)-5-methoxy-pyrimidin-4-ylamino]-N-pyrrolidin-3-yl-nicotinamide]	24 nM	–
COc1cnc(-c2cc(Cl)ccc2F)nc1Nc1ccncc1C(=O)NC1CNC1 [Compound 87, N-Azetidin-3-yl-4-[2-(5-chloro-2-fluoro-phenyl)-5-methoxy-pyrimidin-4-ylamino]-nicotinamide]	50 nM	–
COc1cnc(-c2cc(Cl)ccc2F)nc1Nc1ccncc1C(=O)NCCNCCO [Compound 6, 4-[2-(5-Chloro-2-fluoro-phenyl)-5-methoxy-pyrimidin-4-ylamino]-N-[2-(2-hydroxy-ethylamino)-ethyl]-nicotinamide]	10 nM	–
CNC(=O)[C@@H]1CCCN1CCCNC(=O)c1cnccc1Nc1nc(-c2cc(Cl)ccc2F)ncc1OC [Compound 122, 4-[2-(5-Chloro-2-fluoro-phenyl)-5-methoxy-pyrimidin-4-ylamino]-N-[3-(2-methylcarbamoyl-pyrrolidin-1-yl)-propyl]-nicotinamide]	53 nM	–
COc1cnc(-c2cc(Cl)ccc2F)nc1Nc1ccncc1C(=O)NCC(F)F [Compound 36, 4-[2-(5-Chloro-2-fluoro-phenyl)-5-methoxy-pyrimidin-4-ylamino]-N-(2,2-difluoro-ethyl)-nicotinamide]	670 nM	–
COc1cnc(-c2cc(Cl)ccc2F)nc1Nc1ccncc1C(=O)NCCCN(C)C [Compound 7, 4-[2-(5-Chloro-2-fluoro-phenyl)-5-methoxy-pyrimidin-4-ylamino]-N-(3-dimethylamino-propyl)-nicotinamide]	30 nM	–
CC(C)c1cnc(-c2cc(Cl)ccc2F)nc1Nc1ccncc1C(=O)NC(CO)CO [Compound 193, 4-[2-(5-Chloro-2-fluoro-phenyl)-5-isopropyl-pyrimidin-4-ylamino]-N-(2-hydroxy-1-hydroxymethyl-ethyl)-nicotinamide]	–	27 nM
COc1cnc(-c2cc(Cl)ccc2F)nc1Nc1ccncc1C(=O)NCCCCCNC(=O)CCCC[C@H]1SC[C@@H]2NC(=O)N[C@@H]21 [Compound 202, 4-[2-(5-Chloro-2-fluoro-phenyl)-5-methoxy-pyrimidin-4-ylamino]-N-{5-[5-(2-oxo-hexahydro-thieno[3,4-d]imidazol-6-yl)-pentanoylamino]-pentyl]-nicotinamide]	–	54 nM
CC(C)NCCNC(=O)c1cnccc1Nc1nc(-c2cc(Cl)ccc2F)ncc1N1CCCC1 [Compound 23, 4-[2-(5-Chloro-2-fluoro-phenyl)-5-pyrrolidin-1-yl-pyrimidin-4-ylamino]-N-(2-isopropylamino-ethyl)-nicotinamide]	200 nM	–
CC(C)c1cnc(-c2cc(Cl)ccc2F)nc1Nc1ccncc1C(=O)NC1(CO)CC1 [Compound 150, 4-[2-(5-Chloro-2-fluoro-phenyl)-5-isopropyl-pyrimidin-4-ylamino]-N-(1-hydroxymethyl-cyclopropyl)-nicotinamide]	10 nM	–
COc1cnc(-c2cc(Cl)ccc2F)nc1Nc1ccncc1C(=O)NC[C@H]1O[C@@H](O)[C@H](O)[C@@H](O)[C@@H]1O [Compound 34, 4-[2-(5-Chloro-2-fluoro-phenyl)-5-methoxy-pyrimidin-4-ylamino)-N-(3,4,5,6-tetahydroxy-tetrahrydro-pyran-2-ylmethyl)-nicotinamide]	1160 nM	–
COC[C@H]1OC(CCNCCCNC(=O)c2cnccc2Nc2nc(-c3cc(Cl)ccc3F)ncc2OC)[C@@H](OC)[C@@H](OC)[C@@H]1OC (stereo partly drawn) [Compound 96, 4-[2-(5-Chloro-2-fluoro-phenyl)-5-methoxy-pyrimidin-4-ylamino]-N-(3-[2-(3,4,5-trimethoxy-6-methoxymethyl-tetrahydro-pyran-2-yl)-ethylamino]-propyl)-nicotinamide]	70 nM	–
CNC(=O)c1cnccc1Nc1nc(-c2cc(Cl)ccc2F)ncc1Cl [Compound 119, 4-[5-Chloro-2-(5-chloro-2-fluoro-phenyl)-pyrimidin-4-ylamino]-N-methyl-nicotinamide]	155 nM	–
COc1cnc(-c2cc(Cl)ccc2F)nc1Nc1ccncc1C(=O)NCCCNCCC1O[C@H](CO)[C@@H](O)[C@H](O)[C@H]1O (stereo partly drawn) [Compound 127, 4-[2-(5-Chloro-2-fluoro-phenyl)-5-methoxy-pyrimidin-4-ylamino]-N-{3-[2-(3,4,5-trihydroxy-6-hydroxymethyl-tetrahydro-pyran-2-yl)-ethylamino]-propyl}-nicotinamide]	63 nM	–
